Experimental data taken from patent US20220152044A1, “TREATMENT OF INFLAMMATORY DISEASES OF THE CENTRAL NERVOUS SYSTEM” (PALMAYA PTY LTD, priority 2019, published 2022).
Entries after “also recorded” stand apart in the source; their conditions may differ.

Columns and labels:
cannabis use = test: Survey of 109 patients, cannabis use after flumazenil infusion; type: in vivo, human
From the text: In a survey of 109 patients daily use was close to halved from 10% to 5.5%.

psychosis = test: Drug or anxiety induced episodes of psychosis at detoxification; type: in vivo, human; conditions: patients with history of psychosis after ceasing cannabis, amphetamines and alcohol; sustained delivery
[1] = Swelling at the site of subcutaneous injection of flumazenil solution; type: in vivo, human; conditions: 16 mg per 30 ml solution, 4 mg in 7.5 ml a day versus standard ampoules 4 mg in 40 ml
Protocol: In our experience, this is the first flumazenil solution prepared for subcutaneous delivery making it possible to deliver 4 mg of flumazenil in a volume of just 7.5 ml per day. Clinically, this is preferred to the standard flumazenil preparations, which involve injecting 4 mg in 40 ml per day. For example, the lower volume results in less swelling at the site of injection.
During our development of flumazenil ampoules we have found the preferred pH is about 4±1. In addition, the volume and dilution of flumazenil is preferably 16 mg per 30 ml. In our experience this was the first flumazenil made for subcutaneous delivery, and therefore, a dose of flumazenil at 4 mg can be administered in a volume of only 7.5 ml a day. Clinically, this is more convenient than the standard flumazenil ampoules which involve injecting 4 mg in a volume of 40 ml. […] In addition, the packaging of a dose of flumazenil of 16 mg in 30 ml enables clinical staff to use one ampoule for 4 days at 4 mg a day and one ampoule for 8 days at doses of 2 mg per day.

PTSD = PTSD patients treated with flumazenil and/or naltrexone; type: in vivo, human; conditions: infusions and implants
From the text: Post Trauma Stress Disorder (PTSD), causes dysregulation of anxiety control that may damage the GABAA system and present as hypervigilance, sleep disturbance, anxiety, gastrointestinal (GIT) or bladder symptoms. We have been using flumazenil for more than 8 years to treat patients presenting complex. The infusions and implants give relief to the anxiety, sleep disturbance and the GIT symptoms as well as urinary symptoms in many well established PTSD patients.
Sleep remained normal following this. The profound recovery of sleep in patients with PTSD using flumazenil and naltrexone by continuous delivery has not previously been described.

migraine patients = test: Two migraine patients, follow-up during and after flumazenil delivery; type: in vivo, human
Protocol: Two migraine patients initially described migraine symptoms, are both symptom free for more than a year. No repeat treatments occurred in the second of the migraine patients, and as such, believe that the treatment might be curative in some patients.
In these two patients treated for migraines, the first patient the history of migraines affecting their required an infusion initially, and then flumazenil implants maintaining at least 1 ng per ml of flumazenil to achieve relief of symptoms. In a second patient we noted that the symptom relief has lasted for more than 12 months when treatment with a flumazenil implant lasting an estimated six months occurred.

[2] = Water bath release rate testing of flumazenil implant; type: physicochemical; conditions: based on water bath release rate testing
Protocol: The patient was then treated with a subcutaneous implant delivering an estimated 60-80 micrograms per hour of flumazenil (based on water bath release rate testing). The implant was expected to last 8-10 weeks. This prevented the migraines for about 9-10weeks. In the week before the implant was inserted, the patient's blood flumazenil level was noted to be 0.5 ng/ml. The usual expected level for 160 microgram an hour infusions was in the order of 2-3 ng per ml and 1-1.5 ng for 80 microgram per hour infusions.

[3] = system: benzodiazepine detoxification; test: Benzodiazepine detoxification with subcutaneous flumazenil infusion; type: in vivo, human
Protocol: Benzodiazepines bring relief to stress and are involved in the release of dopamine. As with all other significant addictions, self-control is extremely damaged in patients with a severe benzodiazepine addiction. Our observations of the treatment of poly-drug dependency which includes benzodiazepine usually responds well to the use of flumazenil at 40-160 μg/hour together with 40-160 μg/hour or greater. […] The continual delivery of flumazenil at this rate allows most patients to reduce their benzodiazepine dosing over a few days to a week or two. The control of symptoms as these patients cease their benzodiazepine is controlled so that the majority of patients can cease benzodiazepine use successfully.
We have used our solution of flumazenil at 16 mg per 30 ml with a pH of 4±1 as a subcutaneous infusion at 40 to 160 μg per hour as our standard treatment to reduce the symptoms associated with benzodiazepine detoxification.
Anticonvulsants, such as sodium valproate at 500 to 1000 mg per day were used for the first 10 days of flumazenil treatment to reduce the risk of epileptic seizures. […] The infusion may require several weeks of treatment and can be followed up with a flumazenil infusion delivering 40 to 160 μg per hour or more, as required to complete detoxification from the opioid.

anxiety = test: Anxiety during and after medication delivery; type: in vivo, human; conditions: flumazenil infusions; for many patients continued for very long periods afterwards
From the text: These observations appeared to indicate a cure or recovery of the patients underlying disease rather than relief of symptoms only. These observations included patients treated in five other years as well as the group treated in 2016-2017.

methamphetamine use = test: Survey of 109 patients, methamphetamine use after flumazenil infusion; type: in vivo, human
From the text: In a survey of 109 patients treated with flumazenil 4.9% were using methamphetamines daily and this fell to 0.9% following treatment with the flumazenil infusion. Abstinence from methamphetamine use increased from 67% before flumazenil treatment to 87% following treatment. This means that 33% of patients using methamphetamines fell to 13% following treatment with flumazenil.

swelling of the tissues at the site of injection [1]: less swelling
flumazenil level maintained by implants to achieve relief of symptoms (migraine patients; first migraine patient, infusion initially then implants): at least 1 ng per ml
estimated delivery rate of flumazenil from subcutaneous implant [2]: 60-80 micrograms per hour
SMILES: CCOC(=O)c1ncn2c1CN(C)C(=O)c1cc(F)ccc1-2 [flumazenil]
daily cannabis use following treatment (cannabis use; 109 patients, 10% before): 5.5%
abstinence from cannabis following treatment (cannabis use; 109 patients, 75% before): 83.5%
patient-reported cannabis cessation symptoms (nausea day one, anxiety, sleep, paranoid and psychotic thinking, suicidal thoughts) (cannabis use; patients who presented to cease cannabis): anxiety was decreased and sleep was better
onset of psychosis with detoxification (psychosis): prevents the onset of psychosis
PTSD symptoms (anxiety, sleep disturbance, GIT and urinary symptoms) (PTSD): give relief; also recorded: significant improvement
duration of symptom relief (migraine patients; second patient, flumazenil implant lasting an estimated six months, no repeat treatment): more than 12 months
symptom free period (migraine patients; two migraine patients): more than a year
blocking of positive modulation of the GABAA receptor with benzodiazepines ([3]; flumazenil at 40-160 μg/hour): not significantly blocked
time to cease benzodiazepine use after commencement of the infusion ([3]; subcutaneous infusion 40 to 160 μg per hour): within a few days to a week
craving for benzodiazepines ([3]; subcutaneous infusion 40 to 160 μg per hour, 16 mg per 30 ml, pH 4±1): decrease in their craving for benzodiazepines
anxiety during the time of medication delivery (anxiety): reduction of anxiety
patients using methamphetamines following treatment (methamphetamine use; 33% before treatment): 13%
patients using methamphetamines daily following treatment (methamphetamine use; 109 patients, flumazenil infusion, 4.9% before): 0.9%
abstinence from methamphetamine use following treatment (methamphetamine use; 109 patients, 67% before flumazenil treatment): 87%
